From BindingDB's records for PubMed 40188441 (Shanghai Jiao Tong University)

Assay: Inhibition of human STING in human THP-1 Dual cells assessed as secreted luciferase reporter of interferon stimulated gene (ISG) measured after 24 hrs incubation by QUANTI-Luc detection assay

| SMILES | IC50 |
| --- | --- |
| COCCOCCn1cc(-c2ccc3[nH]cc(NC(=O)Nc4ccc5c(c4)OC(F)(F)O5)c3c2)nn1 | 2490 nM |
| Cc1ccc2c(NC(=O)N3CCc4[nH]c5c(Cl)c(Cl)ccc5c4C3)c[nH]c2c1 | > 10000 nM |
| N#C/C=C/c1ccc2[nH]cc(NC(=O)Nc3ccc4c(c3)OC(F)(F)O4)c2c1 | > 10000 nM |
| O=C(Nc1ccc2c(c1)OC(F)(F)O2)Nc1c[nH]c2ccc(-c3cn(CCN4CCOCC4)nn3)cc12 | > 10000 nM |
| Cn1ccc(-c2cc(Cl)c(Cl)c3[nH]c4c(c23)CN(C(=O)Nc2c[nH]c3ccccc23)CC4)n1 | > 10000 nM |
| O=C(Nc1ccc2c(c1)OC(F)(F)O2)Nc1c[nH]c2ccc(-c3cn(CCO)nn3)cc12 | > 10000 nM |
| COc1ccc2[nH]cc(NC(=O)N3CCc4[nH]c5c(Cl)c(Cl)ccc5c4C3)c2c1 | 2380 nM |
| O=C(Nc1ccc2c(c1)CCN2)Nc1c[nH]c2ccc(F)cc12 | > 10000 nM |
| O=C(Nc1c[nH]c2ccc(F)cc12)N1CCc2[nH]c3c(Cl)c(Cl)ccc3c2C1 | 2400 nM |
| O=C(Nc1ccc2c(c1)OC(F)(F)O2)Nc1c[nH]c2ccc(C#CC(F)(F)F)cc12 | > 10000 nM |
| O=C(Nc1c[nH]c2cc(Cl)ccc12)N1CCc2[nH]c3c(Cl)c(Cl)ccc3c2C1 | 3310 nM |
| C=CC(=O)Nc1ccc2[nH]cc(NC(=O)Nc3ccc4c(c3)OC(F)(F)O4)c2c1 | > 10000 nM |
| O=C(Nc1c[nH]c2cc(F)ccc12)N1CCc2[nH]c3c(Cl)c(Cl)ccc3c2C1 | 3180 nM |
| COc1ccc2c(NC(=O)N3CCc4[nH]c5c(Cl)c(Cl)ccc5c4C3)c[nH]c2c1 | > 10000 nM |
| CCOP(=O)(Cc1ccc2[nH]cc(NC(=O)Nc3ccc4c(c3)OC(F)(F)O4)c2c1)OCC | > 10000 nM |
| O=C(Nc1ccc2c(c1)COB2O)Nc1c[nH]c2ccc(F)cc12 | > 10000 nM |
| COC(=O)/C=C/c1ccc2[nH]cc(NC(=O)Nc3ccc4c(c3)OC(F)(F)O4)c2c1 | 3650 nM |
| O=C(Nc1ccc2c(c1)OCO2)Nc1c[nH]c2ccc(F)cc12 | 3470 nM |

These reach a lower IC50. Values come first.

| IC50 | SMILES |
| --- | --- |
| 18 nM | O=C(Nc1ccc2c(c1)OC(F)(F)O2)Nc1c[nH]c2ccccc12 |
| 489 nM | CC(=O)OCC#Cc1ccc2[nH]cc(NC(=O)Nc3ccc4c(c3)OC(F)(F)O4)c2c1 |
| 264 nM | Cn1cc(C#Cc2ccc3[nH]cc(NC(=O)Nc4ccc5c(c4)OC(F)(F)O5)c3c2)cn1 |
| 1350 nM | O=C(Nc1ccc2c(c1)OCCO2)Nc1c[nH]c2ccc(F)cc12 |
| 119 nM | C#Cc1ccc2[nH]cc(NC(=O)Nc3ccc4c(c3)OC(F)(F)O4)c2c1 |
| 269 nM | Fc1ccc2[nH]cc(Nc3nc4cc(C(F)(C(F)(F)F)C(F)(F)F)ccc4[nH]3)c2c1 |
| 43 nM | Fc1ccc2[nH]cc(Nc3nc4cc(C5CCCC5)ccc4[nH]3)c2c1 |
| 71 nM | O=C(Nc1ccc2c(c1)OC(F)(F)O2)Nc1c[nH]c2ccc(Br)cc12 |
| 2120 nM | O=C(Nc1c[nH]c2ccccc12)N1CCc2[nH]c3c(Cl)c(Cl)ccc3c2C1 |
| 382 nM | O=C(Nc1c[nH]c2ccc(F)cc12)N1CCc2oc3c(Cl)c(Cl)ccc3c2C1 |
| 1830 nM | O=C(Nc1cccc2c1OC(F)(F)O2)Nc1c[nH]c2ccccc12 |
| 1180 nM | CN1CCc2cc(NC(=O)Nc3c[nH]c4ccc(F)cc34)ccc21 |
| 44 nM | Fc1cnc2[nH]cc(Nc3nc4cc(C5CCCC5)ccc4[nH]3)c2c1 |
| 116 nM | N#CC/C=C/c1ccc2[nH]cc(NC(=O)Nc3ccc4c(c3)OC(F)(F)O4)c2c1 |
| 353 nM | O=C(Nc1c[nH]c2ccc(Br)cc12)N1CCc2oc3c(Cl)c(Cl)ccc3c2C1 |
| 110 nM | O=C(Nc1ccc2c(c1)OC(F)(F)C(F)(F)O2)Nc1c[nH]c2ccc(F)cc12 |
| 216 nM | Fc1cc2[nH]cc(Nc3nc4cc(C5CCCC5)ccc4[nH]3)c2cc1F |
| 66 nM | O=C(Nc1ccc2c(c1)OC(F)(F)O2)Nc1c[nH]c2ccc(Cl)cc12 |
| 2190 nM | O=C(Nc1ccc2c(c1)OC(F)(F)O2)Nc1c[nH]c2ccc(C#CCO)cc12 |
| 1220 nM | O=C(Nc1ccc2c(c1)NCC2)Nc1c[nH]c2ccc(F)cc12 |
| 258 nM | O=C(Nc1ccc2c(c1)OC(F)(F)O2)Nc1c[nH]c2ccc(C#CC3CC3)cc12 |
| 791 nM | O=C(Nc1c[nH]c2ccc(Br)cc12)N1CCc2[nH]c3c(Cl)c(Cl)ccc3c2C1 |
| 2050 nM | O=C(Nc1c[nH]c2ccccc12)N1CCc2[nH]c3c(Cl)c(Cl)cc(Br)c3c2C1 |
| 192 nM | Fc1ccc2[nH]cc(Nc3nc4cc5c(cc4[nH]3)OC(F)(F)O5)c2c1 |
